The record followed here is patent US5730982A, “Therapeutic use of hypervariable region of monoclonal antibody M195 and constructs thereof” (Sloan-Kettering Institute for Cancer Research, priority 1995, dated 1998).

For the experiment, the system named is myeloid leukemic progenitor cells [CFU-GM-(L)] from AML patients. As to the kind of experiment: Purging of fresh leukemic cells from AML patients, CFU-GM-(L) colony inhibition. Format: cell-based. To be noted: Homo sapiens, fresh leukemic cells from 4 patients with AML, 4-HC 100 uM/L, VP-16 5 ug/ml where combined. As for the experimental part: We report the results of a preclinical study comparing four different purging protocols using promyelocytic human cell line HL-60 and myeloid leukemic progenitor cells [CFU-GM-(L)] from AML patients assayed in semisolid culture. We studied the antileukemic effect of 1] complement-dependent lysis by 2 different MoAbs (M195 and F23; 40 ug/ml), reactive with distinct antigens found on early myeloid cells and monocytes, used alone and in combinations; 2] 4-Hydroperoxycyclophosphamide (4-HC) (100 uM/L) alone or 3] combined with VP-16 (5 ug/ml) and 4] a cocktail of 1-3 protocols as above (ie combined immunochemotherapy). Four logs of HL-60 tumor cell elimination was observed after 1 hour incubation with both MoAbs plus 4-HC+VP-16 while the single treatment (ie immunotherapy or chemotherapy) provided 1.5 and 3.0 logs of colony forming inhibition respectively.
The combined treatment of MoAbs and 4-HC+VP-16 produced a 3-log reduction of CFU-GM-(L) colony formation. By comparison the mean recovery of committed normal bone marrow progenitors after incubation with MoAbs and complement was 19.5% for CFU-GM, 32.3% for BFU-E and 16.7% for CFU-MIX.

Molecules are shown by their SMILES.

As for `O=P1(N(CCCl)CCCl)NC(OO)CCO1` (stereo not shown) [4-HC, 4-Hydroperoxycyclophosphamide], the inhibition at 100 µM was 95.5%.
